Measurements from ChEMBL document CHEMBL1125312, “Highly potent, orally active diester macrocyclic human renin inhibitors” (J Med Chem, 1992).
One block for each compound: values may come before it.

Tests used:
[1] = Cumulative dose excreted after intraduodenal administration at 2-3 hours in rats; type: ADME, organism-based; details: rat, in vivo
Rattus norvegicus [2] = assay: Cumulative dose excreted after intravenous administration at 8-24 hours in rats; type: ADME, organism-based; details: in vivo
[3] = Cumulative dose excreted after intraduodenal administration at 1.0-1.5 hours in rats; type: ADME, organism-based; details: rat, in vivo
Rattus norvegicus [4] = assay: Compound was evaluated for the percentage of feces excretion of radioactivity, by male Sprague-Dawley rats after oral administration of compound dose (1 mg/kg) at 48-72 hr; type: ADME, organism-based; details: in vivo
Rattus norvegicus [5] = assay: Compound was evaluated for the percentage of urine excretion of radioactivity, by male Sprague-Dawley rats after oral administration of compound dose (1 mg/kg) at 48-72 hr; type: ADME, organism-based; details: in vivo
Rattus norvegicus [6] = assay: Compound was evaluated for the percentage of feces excretion of radioactivity, by male Sprague-Dawley rats after intravenous administration of compound dose (1 mg/kg) at 0-24 hr; type: ADME, organism-based; details: in vivo
Rattus norvegicus [7] = assay: Compound was evaluated for the percentage of urine excretion of radioactivity, by male Sprague-Dawley rats after oral administration of compound dose (1 mg/kg) at 0-24 hr; type: ADME, organism-based; details: in vivo
Rattus norvegicus [8] = assay: Cumulative dose excreted after intravenous administration at 0-0.5 hours in rats; type: ADME, organism-based; details: in vivo
[9] = Cumulative dose excreted after intraduodenal administration at 6-8 hours in rats; type: ADME, organism-based; details: rat, in vivo
Rattus norvegicus [10] = assay: Cumulative dose excreted after intravenous administration at 1.5-2 hours in rats; type: ADME, organism-based; details: in vivo
Rattus norvegicus [11] = assay: Compound was evaluated for the percentage of feces excretion of radioactivity, by male Sprague-Dawley rats after oral administration of compound dose (1 mg/kg) at 24-48 hr; type: ADME, organism-based; details: in vivo
Rattus norvegicus [12] = assay: Cumulative dose excreted after intravenous administration at 2-3 hours in rats; type: ADME, organism-based; details: in vivo
Rattus norvegicus [13] = assay: Cumulative dose excreted after intravenous administration at 3-4 hours in rats; type: ADME, organism-based; details: in vivo
[14] = Cumulative dose excreted after intraduodenal administration at 3-4 hours in rats; type: ADME, organism-based; details: rat, in vivo
[15] = Cumulative dose excreted after intraduodenal administration at 1.5-2.0 hours in rats; type: ADME, organism-based; details: rat, in vivo
Rattus norvegicus [16] = assay: Cumulative dose excreted after intravenous administration at 4-6 hours in rats; type: ADME, organism-based; details: in vivo
Rattus norvegicus [17] = assay: Compound was evaluated for the percentage of feces excretion of radioactivity, by male Sprague-Dawley rats after oral administration of compound dose (1 mg/kg) at 0-24 hr; type: ADME, organism-based; details: in vivo
Rattus norvegicus [18] = assay: Compound was evaluated for the percentage of urine excretion of radioactivity, by male Sprague-Dawley rats after oral administration of compound dose (1 mg/kg) at 24-48 hr; type: ADME, organism-based; details: in vivo
Rattus norvegicus [19] = assay: Compound was evaluated for the percentage of urine excretion of radioactivity, by male Sprague-Dawley rats after intravenous administration of compound dose (1 mg/kg) at 0-24 hr; type: ADME, organism-based; details: in vivo
Rattus norvegicus [20] = assay: Compound was evaluated for the percentage of feces excretion of radioactivity, by male Sprague-Dawley rats after intravenous administration of compound dose (1 mg/kg) at 24-48 hr; type: ADME, organism-based; details: in vivo
Renin = target: T1, Renin (Homo sapiens, UniProt P00797); assay: Inhibitory activity against human renin inhibition (at pH 7.4)
T1 sequence (P00797 whole entry): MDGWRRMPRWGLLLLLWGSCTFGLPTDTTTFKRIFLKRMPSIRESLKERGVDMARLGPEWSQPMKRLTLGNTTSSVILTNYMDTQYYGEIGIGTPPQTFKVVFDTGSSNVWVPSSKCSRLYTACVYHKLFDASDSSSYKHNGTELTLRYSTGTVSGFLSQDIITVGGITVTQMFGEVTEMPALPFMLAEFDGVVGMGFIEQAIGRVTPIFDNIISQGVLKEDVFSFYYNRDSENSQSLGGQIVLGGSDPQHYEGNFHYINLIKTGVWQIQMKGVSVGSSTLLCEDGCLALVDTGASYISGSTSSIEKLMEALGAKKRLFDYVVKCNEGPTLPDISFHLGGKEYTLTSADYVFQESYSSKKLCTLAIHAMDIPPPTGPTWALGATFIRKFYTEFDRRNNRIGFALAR

Rattus norvegicus [21] = assay: Cumulative dose excreted after intraduodenal administration at 8-24 hours in rats; type: ADME, organism-based; details: in vivo, other
[22] = Cumulative dose excreted after intravenous administration at 0.5-1 hours in rats; type: ADME, organism-based; details: rat, in vivo
[23] = Cumulative dose excreted after intravenous administration at 1.0-1.5 hours in rats; type: ADME, organism-based; details: rat, in vivo
[24] = Cumulative dose excreted after intraduodenal administration at 0.5-1.0 hours in rats; type: ADME, organism-based; details: rat, in vivo
Rattus norvegicus [25] = assay: Compound was evaluated for the percentage of urine excretion of radioactivity, by male Sprague-Dawley rats after intravenous administration of compound dose (1 mg/kg) at 24-48 hr; type: ADME, organism-based; details: in vivo
[26] = Cumulative dose excreted after intraduodenal administration at 0-0.5 hours in rats; type: ADME, organism-based; details: rat, in vivo
Rattus norvegicus [27] = assay: Cumulative dose excreted after intraduodenal administration at 4-6 hours in rats; type: ADME, organism-based; details: in vivo, other
Rattus norvegicus [28] = assay: Cumulative dose excreted after intravenous administration at 6-8 hours in rats; type: ADME, organism-based; details: in vivo

SMILES: CC(C)(C)CC1CCCC(=O)OC[C@H](NC(=O)C(Cc2ccccc2)NC(=O)OC(C)(C)C)C(=O)N[C@@H](CC2CCCCC2)[C@@H](O)C(=O)O1 (single isomer, unassigned; diastereomer 2)
IC50 (Renin): 1200 nM

SMILES: CC(C)(C)OC(=O)NC(Cc1ccccc1)C(=O)N[C@H]1COC(=O)CCC(CN2CCOCC2)OC(=O)[C@H](O)[C@H](CC2CCCCC2)NC1=O (single isomer, unassigned; diastereomer 2)
IC50 (Renin): 6400 nM

SMILES: CC(C)(C)OC(=O)NC(Cc1ccccc1)C(=O)N[C@H]1CCC(=O)OCC(CN2CCOCC2)OC(=O)[C@H](O)[C@H](CC2CCCCC2)NC1=O (single isomer, unassigned; diastereomer 2)
IC50 (Renin): 20000 nM

The next compounds have a lower IC50 (Renin) than those just listed; values first:

Dose excreted [1]: 4% | Dose excreted (Rattus norvegicus [2]): 48.7% | Dose excreted [3]: 3.6% | Dose excreted (Rattus norvegicus [4]): 0.2% | Dose excreted (Rattus norvegicus [5]): 0.3% | Dose excreted (Rattus norvegicus [6]): 43.5% | Dose excreted (Rattus norvegicus [7]): 3.1% | Dose excreted (Rattus norvegicus [8]): 35.7% | Dose excreted [9]: 4.4% | Dose excreted (Rattus norvegicus [10]): 45.5% | Dose excreted (Rattus norvegicus [11]): 3.3% | Dose excreted (Rattus norvegicus [12]): 46.4% | Dose excreted (Rattus norvegicus [13]): 46.9% | Dose excreted [14]: 4.2% | Dose excreted [15]: 3.9% | Dose excreted (Rattus norvegicus [16]): 47.5% | Dose excreted (Rattus norvegicus [17]): 81.7% | Dose excreted (Rattus norvegicus [18]): 0.7% | Dose excreted (Rattus norvegicus [19]): 18.5% | Dose excreted (Rattus norvegicus [20]): 3.5% | IC50 (Renin): 1.3 nM | Dose excreted (Rattus norvegicus [21]): 4.7% | Dose excreted [22]: 42.7% | Dose excreted [23]: 44.6% | Dose excreted [24]: 3.3% | Dose excreted (Rattus norvegicus [25]): 0.7% | Dose excreted [26]: 2.4% | Dose excreted (Rattus norvegicus [27]): 4.3% | Dose excreted (Rattus norvegicus [28]): 47.9%
SMILES: O=C1CCC[C@H](CN2CCOCC2)OC(=O)[C@H](O)[C@H](CC2CCCCC2)NC(=O)[C@@H](NC(=O)[C@H](Cc2ccccc2)NC2CN3CCC2CC3)CO1 (stereo partly specified)

IC50 (Renin): 200 nM
SMILES: CCCCC1COC(=O)CC[C@H](NC(=O)C(Cc2ccccc2)NC(=O)OC(C)(C)C)C(=O)N[C@@H](CC2CCCCC2)[C@@H](O)C(=O)O1 (single isomer, unassigned; diastereomer 2)

IC50 (Renin): 170 nM
SMILES: CC(C)(C)OC(=O)NC(Cc1ccccc1)C(=O)N[C@H]1COC(=O)CCCC(CN2CCOCC2)OC(=O)[C@H](O)[C@H](CC2CCCCC2)NC1=O (single isomer, unassigned; diastereomer 2)

IC50 (Renin): 180 nM
SMILES: CCCCC1CCCC(=O)OC[C@H](NC(=O)C(Cc2ccccc2)NC(=O)OC(C)(C)C)C(=O)N[C@@H](CC2CCCCC2)[C@@H](O)C(=O)O1 (single isomer, unassigned; diastereomer 2)

IC50 (Renin): 86 nM
SMILES: CN(C)CC1CCCC(=O)OC[C@H](NC(=O)C(Cc2ccccc2)NC(=O)OC(C)(C)C)C(=O)N[C@@H](CC2CCCCC2)[C@@H](O)C(=O)O1 (stereo in doubt; 4t)
